Results from patent US10131652B2, “Pyrimidinyloxy benzene derivatives as herbicides” (E. I. DU PONT DE NEMOURS AND COMPANY, priority 2014, dated 2018).
Where two headings read alike, the source gives them in different places.

Columns and labels:
Type in all cases: in vivo
[1] = system: large (Lg) crabgrass (Digitaria sanguinalis); assay: Test B pre-/postemergence plant response; details: for pest or weed control at 1000 g/ha: Digitaria sanguinalis, 240 h, read-out: Plant response rating, Crabgrass, Large
Outline: (§1)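 Visual injury scores on a 0–100 scale (100 = complete control) relative to untreated plants, taken about 10 days post-treatment in greenhouse. Treatments were a directed preemergence soil spray and a postemergence spray at one- to two-leaf stage, using surfactant-containing solvent formulation.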

[2] = system: morningglory (Ipomoea spp.); assay: Test B pre-/postemergence plant response; details: for pest or weed control at 1000 g/ha: Ipomoea, 240 h, read-out: Plant response rating, Morningglory
Outline: as §1

[3] = system: velvetleaf (Abutilon theophrasti); assay: Test B pre-/postemergence plant response; details: for pest or weed control at 1000 g/ha: Abutilon theophrasti, 240 h, read-out: Plant response rating, Velvetleaf
Outline: as §1

corn (Zea mays) = assay: Test B pre-/postemergence plant response; details: for Corn plant response rating (crop injury, 0 = no effect, 100 = complete kill) at 1000 g/ha: Zea mays, 240 h
Outline: as §1

[4] = system: pigweed (Amaranthus retroflexus); assay: Test B pre-/postemergence plant response; details: for pest or weed control at 1000 g/ha: Amaranthus retroflexus, 240 h, read-out: Plant response rating, Pigweed
Outline: as §1

[5] = system: giant foxtail (Setaria faberii); assay: Test B pre-/postemergence plant response; details: for pest or weed control at 1000 g/ha: Setaria faberi, 240 h, read-out: Plant response rating, Foxtail, Giant
Outline: as §1

[6] = system: wheat (Triticum aestivum); assay: Test B pre-/postemergence plant response; details: for plant injury at 1000 g/ha: Triticum aestivum, 240 h, read-out: Plant response rating, Wheat
Outline: as §1

[7] = system: barnyardgrass (Echinochloa crus-galli); assay: Test B pre-/postemergence plant response; details: for pest or weed control at 1000 g/ha: Echinochloa crus-galli, 240 h, read-out: Plant response rating, Barnyardgrass
Outline: as §1

[8] = system: small-flower umbrella sedge (Cyperus difformis); assay: Test D flooded paddy test plant response; details: Flood (flooded paddy test), visual rating on scale 0 to 100 (0 no effect, 100 complete control), 13 to 15 days
Source text: (§2) Plant species in the flooded paddy test consisted of rice (Oryza sativa), small-flower umbrella sedge (Cyperus difformis), ducksalad (Heteranthera limosa), and bamyardgrass (Echinochloa crus-galli) grown to the 2-leaf stage for testing. At time of treatment, test pots were flooded to 3 cm above the soil surface, treated by application of test compounds directly to the paddy water, and then maintained at that water depth for the duration of the test. Treated plants and controls were maintained in a greenhouse for 13 to 15 days, after which time all species were compared to controls and visually evaluated. Plant response ratings, summarized in Table D, are based on a scale of 0 to 100 where 0 is no effect and 100 is complete control. A dash (-) response means no test result.

[9] = system: ducksalad (Heteranthera limosa); assay: Test D flooded paddy test plant response; details: Flood (flooded paddy test), visual rating on scale 0 to 100 (0 no effect, 100 complete control), 13 to 15 days
Source text: as §2

rice (Oryza sativa) [10] = assay: Test D flooded paddy test plant response; details: Flood (flooded paddy test), visual rating on scale 0 to 100 (0 no effect, 100 complete control), 13 to 15 days
Source text: as §2

[11] = system: barnyardgrass (Echinochloa crus-galli); assay: Test D flooded paddy test plant response; details: Flood (flooded paddy test), visual rating on scale 0 to 100 (0 no effect, 100 complete control), 13 to 15 days
Source text: as §2

[12] = system: small-flower umbrella sedge (Cyperus difformis); assay: Test C flooded paddy test plant response; details: Flood, 250 g ai/ha; scale of 0 to 100 where 0 is no effect and 100 is complete control; 13 to 15 days
Outline: (§3)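 Plants grown to the 2-leaf stage; pots flooded to 3 cm above soil, test compounds applied directly to paddy water, depth maintained throughout. Greenhouse for 13 to 15 days, then visual rating versus controls on a 0–100 scale (0 no effect, 100 complete control).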

[13] = system: ducksalad (Heteranthera limosa); assay: Test C flooded paddy test plant response; details: Flood, 250 g ai/ha; scale of 0 to 100 where 0 is no effect and 100 is complete control; 13 to 15 days
Outline: as §3

rice (Oryza sativa) [14] = assay: Test C flooded paddy test plant response; details: Flood, 250 g ai/ha; scale of 0 to 100 where 0 is no effect and 100 is complete control; 13 to 15 days
Outline: as §3

[15] = system: barnyardgrass (Echinochloa crus-galli); assay: Test C flooded paddy test plant response; details: Flood, 250 g ai/ha; scale of 0 to 100 where 0 is no effect and 100 is complete control; 13 to 15 days
Outline: as §3

[16] = post-emergence, Postemergence, 1000 g ai/ha, 0 to 100 scale (0 no effect, 100 complete control)
[17] = pre-emergence, Preemergence, 1000 g ai/ha, 0 to 100 scale (0 no effect, 100 complete control)
[18] = Postemergence, 1000 g ai/ha, 0 to 100 scale (0 no effect, 100 complete control)
[19] = Preemergence, 1000 g ai/ha, 0 to 100 scale (0 no effect, 100 complete control)
[20] = 125 g ai/ha, postemergence, 0 to 100 scale, 0 no effect, 100 complete control
[21] = 500 g ai/ha, postemergence, 0 to 100 scale, 0 no effect, 100 complete control
[22] = Preemergence, 125 g ai/ha, 0 to 100 scale (0 no effect, 100 complete control)
[23] = Preemergence, 500 g ai/ha, 0 to 100 scale where 0 is no effect and 100 is complete control

Clc1ccc(-c2ccccc2Oc2ncc(Cl)cn2)nc1 [Compound 1, 5-chloro-2-[2-(5-chloro-2-pyridinyl)phenoxy]pyrimidine]
0: Plant response rating, Sedge, Umbrella ([8]; 31 g ai/ha) | Plant response rating, Sedge, Umbrella ([8]; 62 g ai/ha) | Plant response rating, Sedge, Umbrella ([8]; 125 g ai/ha) | Plant response rating, Sedge, Umbrella ([8]; 250 g ai/ha) | Plant response rating, Ducksalad ([9]; 31 g ai/ha) | Plant response rating, Ducksalad ([9]; 62 g ai/ha) | Plant response rating, Ducksalad ([9]; 125 g ai/ha) | Plant response rating, Ducksalad ([9]; 250 g ai/ha) | Plant response rating, Rice (rice (Oryza sativa) [10]; 31 g ai/ha) | Plant response rating, Rice (rice (Oryza sativa) [10]; 62 g ai/ha) | Plant response rating, Rice (rice (Oryza sativa) [10]; 125 g ai/ha) | Plant response rating, Rice (rice (Oryza sativa) [10]; 250 g ai/ha) | Plant response rating, Barnyardgrass ([11]; 31 g ai/ha) | Plant response rating, Barnyardgrass ([11]; 62 g ai/ha) | Plant response rating, Barnyardgrass ([11]; 125 g ai/ha) | Plant response rating, Barnyardgrass ([11]; 250 g ai/ha)
20%: pest or weed control at 1000 g/ha [2, 17]
10%: Corn plant response rating (crop injury, 0 = no effect, 100 = complete kill) at 1000 g/ha (corn (Zea mays); [16])
70%: pest or weed control at 1000 g/ha [1, 16] | pest or weed control at 1000 g/ha [7, 16]
100%: pest or weed control at 1000 g/ha [1, 17] | pest or weed control at 1000 g/ha [3, 16] | pest or weed control at 1000 g/ha [4, 16] | pest or weed control at 1000 g/ha [4, 17] | pest or weed control at 1000 g/ha [5, 17]
60%: pest or weed control at 1000 g/ha [2, 16]
80%: pest or weed control at 1000 g/ha [3, 17] | pest or weed control at 1000 g/ha [5, 16] | pest or weed control at 1000 g/ha [7, 17]
0%: Corn plant response rating (crop injury, 0 = no effect, 100 = complete kill) at 1000 g/ha (corn (Zea mays); [17]) | plant injury at 1000 g/ha [6, 16] | plant injury at 1000 g/ha [6, 17]

FC(F)(F)Oc1cccc(-c2ccccc2Oc2ncc(Cl)cn2)c1 [Compound 40]
70: Plant response rating, Crabgrass, Large [1, 19]
100: Plant response rating, Morningglory [2, 18] | Plant response rating, Velvetleaf [3, 18] | Plant response rating, Pigweed [4, 18] | Plant response rating, Pigweed [4, 19] | Plant response rating, Foxtail, Giant [5, 19]
90: Plant response rating, Velvetleaf [3, 19]
40: Plant response rating, Ducksalad ([9]; 250 g ai/ha)
50: Plant response rating, Crabgrass, Large [1, 18] | Plant response rating, Foxtail, Giant [5, 18] | Plant response rating, Barnyardgrass [7, 19] | Plant response rating, Sedge, Umbrella ([8]; 250 g ai/ha)
0: Plant response rating, Morningglory [2, 19] | Plant response rating, Corn (corn (Zea mays); [19]) | Plant response rating, Wheat [6, 19] | Plant response rating, Sedge, Umbrella ([8]; 31 g ai/ha) | Plant response rating, Sedge, Umbrella ([8]; 62 g ai/ha) | Plant response rating, Ducksalad ([9]; 31 g ai/ha) | Plant response rating, Ducksalad ([9]; 62 g ai/ha) | Plant response rating, Rice (rice (Oryza sativa) [10]; 31 g ai/ha) | Plant response rating, Rice (rice (Oryza sativa) [10]; 62 g ai/ha) | Plant response rating, Rice (rice (Oryza sativa) [10]; 125 g ai/ha) | Plant response rating, Rice (rice (Oryza sativa) [10]; 250 g ai/ha) | Plant response rating, Barnyardgrass ([11]; 31 g ai/ha) | Plant response rating, Barnyardgrass ([11]; 62 g ai/ha) | Plant response rating, Barnyardgrass ([11]; 125 g ai/ha) | Plant response rating, Barnyardgrass ([11]; 250 g ai/ha)
30: Plant response rating, Barnyardgrass [7, 18] | Plant response rating, Sedge, Umbrella ([8]; 125 g ai/ha)
10: Plant response rating, Wheat [6, 18]
20: Plant response rating, Corn (corn (Zea mays); [18]) | Plant response rating, Ducksalad ([9]; 125 g ai/ha)

N#Cc1cccc(-n2cc(Br)cn2)c1Oc1ncc(Cl)cn1 [Compound 209]
30: Plant response rating, Crabgrass, Large [1, 21] | Plant response rating, Morningglory [2, 20] | Plant response rating, Morningglory [2, 21] | Plant response rating, Velvetleaf [3, 20] | Plant response rating, Velvetleaf [3, 21] | Plant response rating, Foxtail, Giant [5, 21] | Foxtail, Giant plant response rating [5, 22]
0: Morningglory plant response rating [2, 22] | Plant response rating, Morningglory [2, 23] | Velvetleaf plant response rating [3, 22] | Plant response rating, Velvetleaf [3, 23] | Plant response rating, Corn (corn (Zea mays); [20]) | Plant response rating, Corn (corn (Zea mays); [21]) | Corn plant response rating (corn (Zea mays); [22]) | Plant response rating, Corn (corn (Zea mays); [23]) | Plant response rating, Foxtail, Giant [5, 20] | Plant response rating, Wheat [6, 20] | Plant response rating, Wheat [6, 21] | Wheat plant response rating [6, 22] | Plant response rating, Wheat [6, 23] | Plant response rating, Barnyardgrass [7, 20] | Plant response rating, Barnyardgrass [7, 21] | Barnyardgrass plant response rating [7, 22] | Sedge, Umbrella plant response rating [12] | Ducksalad plant response rating [13] | Rice plant response rating (rice (Oryza sativa) [14]) | Barnyardgrass plant response rating [15]
10: Plant response rating, Crabgrass, Large [1, 20] | Plant response rating, Barnyardgrass [7, 23]
70: Crabgrass, Large plant response rating [1, 22]
100: Plant response rating, Crabgrass, Large [1, 23] | Plant response rating, Pigweed [4, 21] | Plant response rating, Pigweed [4, 23] | Plant response rating, Foxtail, Giant [5, 23]
90: Plant response rating, Pigweed [4, 20] | Pigweed plant response rating [4, 22]
